# Literature values, collected in patent US20100112102A1, “THERAPEUTIC COMPOSITIONS FOR THE TREATMENT OF BENIGH PROSTATE HYPERPLASIA, PROSTATITIS, IMPOTENCE, INFERTILITY AND PROSTATE CANCER AND A METHOD FOR THE USE THEREOF” (priority 2007, published 2010).
# System: 5α-reductase
# Conditions: one group of patients
structure (smiles),measurement,value
CC(C)(C)NC(=O)[C@H]1CC[C@H]2[C@@H]3CC[C@H]4NC(=O)C=C[C@]4(C)[C@H]3CC[C@]12C [Finasteride],"J-PSS parameters, decrease on average",20%
same,"maximal rate of urination, increase",32.5%
same,"prostate size, decrease on average",32%
